In patent publication US20220235065A1 (Epizyme, Inc., priority 2016, published 2022):
Counter-ions that a name gives are not always drawn.

Molecular target: T1, recombinant purified human EHMT2 913-1193 (Homo sapiens, UniProt Q96KQ7)
T1 construct: Recombinant purified human EHMT2 913-1193 (55 μM) synthesized by Viva was used for all experiments; purchased Viva
T1 sequence (Q96KQ7 913-1193): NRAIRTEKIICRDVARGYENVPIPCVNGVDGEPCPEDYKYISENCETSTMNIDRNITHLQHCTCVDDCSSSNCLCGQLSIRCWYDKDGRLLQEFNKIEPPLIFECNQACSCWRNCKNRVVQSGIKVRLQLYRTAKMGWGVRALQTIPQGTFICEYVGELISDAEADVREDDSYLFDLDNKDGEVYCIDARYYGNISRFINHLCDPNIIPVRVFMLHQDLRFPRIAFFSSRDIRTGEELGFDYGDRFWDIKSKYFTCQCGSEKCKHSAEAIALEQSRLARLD
Assay: EHMT2 enzyme assay on histone peptide substrate (3H-SAM Flashplate)
Type: biochemical
Conditions: read-out: EHMT2 PEP (IC50 μM)
Method in brief: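 Compounds (10-point 3-fold series, top 50 μM final, 2% DMSO) preincubated 30 min with 0.031 nM EHMT2 in 20 mM Bicine pH 7.5, 1 mM TCEP; reaction started with 3H-SAM and biotinylated H3 1-15 peptide, both at Km, run 60 min at room temperature. Flashplate capture; IC50 from four-parameter fit, triplicates.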

Q: `CNc1cc(C)nc(Nc2ccc(OC)c(-n3cc4c(n3)CNCC4)c2)n1` [Compound 22, 2-N-(4-methoxy-3-[2H,4H,5H,6H,7H-pyrazolo[3,4-c]pyridin-2-yl]phenyl)-4-N,6-dimethylpyrimidine-2,4-diamine hydrochloride] was tested. Which IC50 did it give?
A: > 10 µM

Q: How did the IC50 turn out when `CNc1cc(C)nc(Nc2ccc(OC)c(-n3ncc4c3CCCN4)c2)n1` [Compound 32] was run?
A: > 10 µM

Q: With `CNCc1ccnc(-c2cc(Nc3nc(C)cc(NC)n3)ccc2OC)c1` [Compound 313] as the compound, how does the IC50 read?
A: 0.1 to 1 µM

Q: Which IC50 does the source give for `CCc1ccc(Nc2nc(C)cc(NC)n2)cc1C(=O)Nc1cccnc1` [Compound 244] here?
A: > 10 µM

Q: `CNCc1cnn(-c2cc(Nc3nc(C)cc(NC)n3)ccc2Br)c1` [Compound 319] was tested. Which IC50 did it give?
A: < 0.1 µM

Q: How did the IC50 turn out when `COc1cc(NC2CCNCC2)ccc1-c1[nH]c2cnccc2c1C` [Compound 310] was run?
A: 1 to 10 µM

Q: `CNc1cc(C)nc(Nc2ccc(Cl)c(C(=O)Nc3cnccn3)c2)n1` [Compound 251] was tested. Which IC50 did it give?
A: 1 to 10 µM

Q: For `CNc1cc(C)nc(Nc2ccc(OC)c(-n3ncc4ccncc43)c2)n1` [Compound 36], which IC50 is on record?
A: > 10 µM

Q: For `CCc1ccc(Nc2nc(C)cc(NC)n2)cc1-c1cc2ccncc2[nH]1` [Compound 269], which IC50 is on record?
A: < 0.1 µM

Q: For `CNc1cc(C)nc(Nc2ccc(OC)c(-c3nnc4n3CCN(C)C4)c2)n1` [Compound 31], which IC50 is on record?
A: > 10 µM

Q: `CNc1cc(C)nc(Nc2ccc(OC)c(-c3nc4cnccn4n3)c2)n1` [Compound 38] was tested. Which IC50 did it give?
A: > 10 µM

Q: Which IC50 does the source give for `CNc1cc(C)nc(Nc2ccc(C)c(-c3cc4[nH]ccc4cn3)c2)n1` [Compound 256] here?
A: < 0.1 µM

Q: For `CNc1cc(C)nc(Nc2ccc(Cl)c(-c3cc4[nH]ccc4cn3)c2)n1` [Compound 255], which IC50 is on record?
A: < 0.1 µM

Q: Which IC50 does the source give for `CNCc1cnn(-c2c(OC)ccc(Nc3nc(C)cc(NC)n3)c2F)c1` [Compound 317, N2-(2-fluoro-4-methoxy-3-(4-((methylamino)methyl)-1H-pyrazol-1-yl)phenyl)-N4,6-dimethylpyrimidine-2,4-diamine] here?
A: < 0.1 µM

Q: For `CNc1cc(C)nc(Nc2ccc(OC)c(-c3cc4[nH]ccc4c(CN)n3)c2)n1` [Compound 296], which IC50 is on record?
A: 0.1 to 1 µM

Q: Which IC50 does the source give for `COc1cc(NC2CCNC2)ccc1-c1[nH]c2cnccc2c1C` (stereo not shown) [Compound 305] here?
A: 0.1 to 1 µM

Q: `CNc1nc2cc(-c3cc4ccncc4[nH]3)c(C)cc2n1C` [Compound 278] was tested. Which IC50 did it give?
A: < 0.1 µM

Q: For `CNc1cc(C)nc(Nc2ccc(C)c(-n3cc4cnccc4n3)c2)n1` [Compound 282], which IC50 is on record?
A: < 0.1 µM

Q: `CNc1nc2cc(-c3cnc4cc[nH]c4c3)c(OC)cc2n1C` [Compound 295] was tested. Which IC50 did it give?
A: 1 to 10 µM

Q: How did the IC50 turn out when `CNCc1cnn(-c2c(Cl)ccc(Nc3nc(C)cc(NC)n3)c2F)c1` [Compound 328] was run?
A: < 0.1 µM

Q: How did the IC50 turn out when `CNCc1cc(-c2cc(Nc3nc(C)cc(NC)n3)ccc2OC)no1` [Compound 331] was run?
A: < 0.1 µM

Q: `CNCc1cn(-c2cc(Nc3nc(C)cc(NC)n3)ccc2OC)nc1F` [Compound 323] was tested. Which IC50 did it give?
A: < 0.1 µM

Q: Which IC50 does the source give for `CNc1cc(C)nc(Nc2ccc(OC)c(-c3nccc(NC)n3)c2)n1` [Compound 306] here?
A: 1 to 10 µM

Q: `CNc1cc(C)nc(Nc2ccc(OC)c(-n3cccn3)c2)n1` [Compound 15, 2-N-[4-methoxy-3-(1H-pyrazol-1-yl)phenyl]-4-N,6-dimethylpyrimidine-2,4-diamine; trifluoroacetic acid] was tested. Which IC50 did it give?
A: > 10 µM

Q: For `CNc1cc(C)nc(Nc2ccc(OC)c(-c3c(C)nc4n3CCNC4)c2)n1` [Compound 30], which IC50 is on record?
A: > 10 µM

Q: Which IC50 does the source give for `CNC1=Nc2cc(-n3cc(C4CCCN4)cn3)c(Cl)cc2C12CCC2` (stereo not shown) [Compound 326] here?
A: < 0.1 µM

Q: With `CNC1=Nc2cc(-n3cc(C4CCCN4)cn3)c(OC)cc2C12CCC2` (stereo not shown) [Compound 322] as the compound, how does the IC50 read?
A: < 0.1 µM

Q: For `CNC1=Nc2cc(-c3cnc4cc[nH]c4c3)c(OC)cc2C12CCC2` [Compound 294], which IC50 is on record?
A: < 0.1 µM

Q: With `CNc1cc(C)nc(Nc2ccc(OC)c(-c3nnc4n3CCNC4)c2)n1` [Compound 21] as the compound, how does the IC50 read?
A: > 10 µM

Q: `CNc1cc(C)nc(Nc2ccc(C)c(C(=O)Nc3cscn3)c2)n1` [Compound 280] was tested. Which IC50 did it give?
A: > 10 µM

Q: With `CNc1cc(C)nc(Nc2ccc(Cl)c(C(=O)Nc3ncccn3)c2)n1` [Compound 258] as the compound, how does the IC50 read?
A: 1 to 10 µM

Q: Which IC50 does the source give for `CNCc1cnn(-c2c(Cl)ccc(Nc3nc(C)cc(NC)n3)c2Cl)c1` [Compound 327] here?
A: < 0.1 µM

Q: With `CNc1cc(C)nc(Nc2ccc(Cl)c(C(=O)Nc3ccncn3)c2)n1` [Compound 259] as the compound, how does the IC50 read?
A: > 10 µM

Q: `CNCc1cnn(-c2cc(Nc3nc(C)cc(NC)n3)ccc2OC)c1` [Compound 285] was tested. Which IC50 did it give?
A: < 0.1 µM

Q: For `CNc1cc(C)nc(Nc2ccc(OC)c(-c3cc4[nH]ccc4c(CNC(C)=O)n3)c2)n1` [Compound 293], which IC50 is on record?
A: 0.1 to 1 µM

Q: `CNc1cc(C)nc(Nc2ccc(OC)c(-n3cc(C4CCCN4)cn3)c2)n1` (stereo not shown) [Compound 321] was tested. Which IC50 did it give?
A: < 0.1 µM

Q: How did the IC50 turn out when `CNc1cc(C)nc(Nc2ccc(OC)c(-n3nccc3CN)c2)n1` [Compound 24] was run?
A: 1 to 10 µM

Q: With `CNCc1cnn(-c2c(F)ccc(Nc3nc(C)cc(NC)n3)c2Cl)c1` [Compound 329] as the compound, how does the IC50 read?
A: < 0.1 µM

Q: `CNc1cc(C)nc(Nc2ccc(OC)c(-c3cc4[nH]cc(C)c4cn3)c2)n1` [Compound 386] was tested. Which IC50 did it give?
A: < 0.1 µM

Q: How did the IC50 turn out when `CNC1=Nc2cc(-c3cc4[nH]ccc4c(C(N)=O)n3)c(OC)cc2C12CCC2` [Compound 308] was run?
A: 1 to 10 µM

Q: How did the IC50 turn out when `CNCc1cnn(-c2cc(Nc3nc(C)cc(NC)n3)ccc2C(F)(F)F)c1` [Compound 325] was run?
A: < 0.1 µM

Q: With `CNCc1cnn(-c2c(F)ccc(Nc3nc(C)cc(NC)n3)c2F)c1` [Compound 307] as the compound, how does the IC50 read?
A: < 0.1 µM

Q: Which IC50 does the source give for `CNc1cc(C)nc(Nc2ccc(C)c(C(=O)Nc3cn(C)cn3)c2)n1` [Compound 302] here?
A: > 10 µM

Q: `CNc1cc(C)nc(Nc2ccc(C)c(C(=O)Nc3cnccn3)c2)n1` [Compound 287] was tested. Which IC50 did it give?
A: 1 to 10 µM

Q: `CNc1cc(C)nc(Nc2ccc(OC)c(-c3[nH]c4cnccc4c3C#N)c2)n1` [Compound 291] was tested. Which IC50 did it give?
A: 1 to 10 µM

Q: For `CNCc1cnn(-c2c(F)ccc(Nc3nc(C)cc(NC)n3)c2OC)c1` [Compound 318], which IC50 is on record?
A: 0.1 to 1 µM

Q: Which IC50 does the source give for `CNc1cc(C)nc(Nc2cnc(C)c(-c3cc4ccncc4[nH]3)c2)n1` [Compound 311] here?
A: > 10 µM

Q: `CNc1cc(C)nc(Nc2ccc(Cl)c(-c3cc4c(cn3)CC(=O)N4)c2)n1` [Compound 260] was tested. Which IC50 did it give?
A: 1 to 10 µM

Q: With `CNc1cc(C)nc(Nc2ccc(OC)c(-n3ncc4c3CCCC4)c2)n1` [Compound 26, 2-N-[4-methoxy-3-(4,5,6,7-tetrahydro-1H-indazol-1-yl)phenyl]-4-N,6-dimethylpyrimidine-2,4-diamine trifluoroacetic acid] as the compound, how does the IC50 read?
A: > 10 µM

Q: How did the IC50 turn out when `CNc1cc(C)nc(Nc2ccc(F)c(-n3cc(CN4CCC4)cn3)c2F)n1` [Compound 315] was run?
A: 0.1 to 1 µM

Q: For `CNc1cc(C)nc(Nc2ccc(OC)c(-c3cc4[nH]ccc4c(C#N)n3)c2)n1` [Compound 292], which IC50 is on record?
A: 0.1 to 1 µM

Q: With `CNc1cc(C)nc(Nc2ccc(OC)c(-c3cccc4[nH]ccc34)c2)n1` [Compound 33, 2-N-[3-(1H-indol-4-yl)-4-methoxyphenyl]-4-N,6-dimethylpyrimidine-2,4-diamine hydrochloride] as the compound, how does the IC50 read?
A: > 10 µM

Q: For `CNc1cc(C)nc(Nc2ccc(OC)c(-n3cc(CN)cn3)c2)n1` [Compound 23, 2-N-[3-[4-(aminomethyl)-1H-pyrazol-1-yl]-4-methoxyphenyl]-4-N,6-dimethylpyrimidine-2,4-diamine; trifluoroacetic acid], which IC50 is on record?
A: < 0.1 µM

Q: Which IC50 does the source give for `CNc1nc2cc(-c3cc4[nH]ccc4cn3)c(C)cc2n1C` [Compound 257] here?
A: 1 to 10 µM

Q: With `CNCc1cnn(-c2cc(Nc3nc(C)cc(NC)n3)ccc2Cl)c1` [Compound 262, N2-(4-chloro-3-(4-((methylamino)methyl)-1H-pyrazol-1-yl)phenyl)-N4,6-dimethylpyrimidine-2,4-diamine] as the compound, how does the IC50 read?
A: < 0.1 µM

Q: Which IC50 does the source give for `CNc1cc(C)nc(Nc2ccc(OC)c(-c3c(C)nc4cnccn34)c2)n1` [Compound 39] here?
A: > 10 µM

Q: `CNC1=Nc2cc(-c3cc4[nH]ccc4nc3C)c(OC)cc2C12CCC2` [Compound 300] was tested. Which IC50 did it give?
A: 0.1 to 1 µM

Q: With `CNCc1cnn(-c2cc(Nc3nc(C)cc(NC)n3)ccc2C)c1` [Compound 286, N4,6-dimethyl-N2-(4-methyl-3-(4-((methylamino)methyl)-1H-pyrazol-1-yl)phenyl)pyrimidine-2,4-diamine] as the compound, how does the IC50 read?
A: < 0.1 µM

Q: With `CNc1cc(C)nc(Nc2ccc(OC)c(-n3cc(C4CC4)cn3)c2)n1` [Compound 14, 2-N-[3-(4-cyclopropyl-1H-pyrazol-1-yl)-4-methoxyphenyl]-4-N,6-dimethylpyrimidine-2,4-diamine] as the compound, how does the IC50 read?
A: 1 to 10 µM

Q: With `CNc1cc(C)nc(Nc2ccc(C)c(-c3[nH]c4cnccc4c3C#N)c2)n1` [Compound 271] as the compound, how does the IC50 read?
A: 1 to 10 µM

Q: `CNc1cc(C)nc(Nc2ccc(Cl)c(-n3cc(C4CCCN4)cn3)c2)n1` (stereo not shown) [Compound 330] was tested. Which IC50 did it give?
A: < 0.1 µM

Q: For `CNc1cc(C)nc(Nc2ccc(OC)c(-c3[nH]c4cnccc4c3CNC(C)=O)c2)n1` [Compound 316], which IC50 is on record?
A: < 0.1 µM

Q: Which IC50 does the source give for `CNc1cc(C)nc(Nc2ccc(Cl)c(C(=O)Nc3nccs3)c2)n1` [Compound 246] here?
A: 1 to 10 µM

Q: How did the IC50 turn out when `CNCc1cc(-c2cc(Nc3nc(C)cc(NC)n3)ccc2OC)on1` [Compound 324] was run?
A: 0.1 to 1 µM

Q: How did the IC50 turn out when `CNc1cc(C)nc(Nc2ccc(C)c(C(=O)Nc3cn(C)nn3)c2)n1` [Compound 299] was run?
A: > 10 µM

Q: Which IC50 does the source give for `CCNc1c[nH]c(=O)c(-c2cc(Nc3nc(C)cc(NC)n3)ccc2C)c1` [Compound 276] here?
A: 1 to 10 µM

Q: Which IC50 does the source give for `CNc1cc(C)nc(Nc2cnc(OC)c(-n3ncc4c3CCNC4)c2)n1` [Compound 19] here?
A: 1 to 10 µM

Q: Which IC50 does the source give for `CNc1cc(C)nc(Nc2ccc(Cl)c(C(=O)Nc3ccnnc3)c2)n1` [Compound 245] here?
A: > 10 µM

Q: With `CNc1nc2cc(-c3[nH]c4cnccc4c3C)c(OC)cc2n1C` [Compound 304] as the compound, how does the IC50 read?
A: 0.1 to 1 µM

Q: `Cc1cc(NC2CCNCC2)ncc1-c1cc2[nH]ccc2cn1` [Compound 247] was tested. Which IC50 did it give?
A: 1 to 10 µM
